Tests used:
[1] = test system: primary heart muscle cells from newborn rats; assay: Inhibitory activity on heart muscle cell apoptosis (serum-free culture, viable cell number by WST-8); format: cell-based, Wister rats; conditions: Rattus norvegicus, 96 h; mean of three independent experiments; concentration required to increase the mean viable cell number by 50% as compared with that in the absence of test compounds; serum-free Medium 199, 4 days
Description: Inhibitory Activity on Heart Muscle Cell Apoptosis
Newborn rats (within 1 day afterbirth) were obtained from pregnant Wister rats purchased from Charles River, anesthetized under ether, and sterilized with 70% ethanol, and then their hearts were excised with tweezers. The excised hearts were washed with a phosphate-buffered physiological saline (T900; Takara) and cut into pieces with surgical scissors. These tissue pieces were washed 4 to 5 times with a phosphate-buffered physiological saline to remove a majority of blood-derived non-heart muscle cells. To the tissue pieces derived from 10 newborns, 5 ml of enzyme solution (1.25 mg trypsin (Difco) and 0.25 mg collagenase (Sigma) per ml of phosphate-buffered saline (PBS)) was added and the mixture was stirred with a stirrer at 37° C. for 15 minutes. Another 2.5 ml enzyme solution was then added twice repeatedly at a 15-minutes interval. Then, Medium 199 (Gibco) containing 10% fetal calf serum (Biowiker) was added in a half volume of the enzyme solution to terminate the enzyme reaction. The cells were filtered through a Cell Strainer (Falcon) and then centrifuged at 400×g for 5 minutes, whereby the cells were collected.
The cells thus collected from 10 newborns were suspended in 50 ml Medium 199 containing 10% fetal calf serum, plated onto 100 mm Petri dishes (Iwaki) in a volume of 10 ml/dish and cultured for 1 hour in a CO2 incubator set at 5% CO2 and 37° C. The cells were then recovered, filtered through a Cell Strainer and centrifuged at 400×g for 5 minutes to collect the primary heart muscle cells derived from newborn rats.
Then, the heart muscle cells from 10 newborn rats were suspended in 2 ml low-isotonic solution (prepared by dissolving 8.29 g NH4Cl, 1.0 g KHCO3, 37 mg EDTA/2Na (ethylenediaminetetraacetic acid disodium) (Dojindo) in 1 L of water) and left for 3 minutes to disrupt erythrocytes. After 10 ml Medium 199 containing 10% fetal calf serum was added thereto, the primary heart muscle cells from newborn rats were collected by centrifugation at 400×g for 5 minutes. The cells were suspended in Medium 199 containing 10% fetal calf serum and then filtered through a cell strainer. After 0.3% trypan blue was added to, and mildly mixed with, an aliquot of the resulting cell suspension, the number of heart muscle cells was counted on an erythrocyte counting plate.
The primary heart muscle cells from newborn rats were suspended at a density of 3×10^6 cells/ml in Medium 199 containing 10% fetal calf serum, put onto a 96-well plate in a volume of 0.1 ml/well, and then cultured in a CO2 incubator set at 5% CO2 and 37° C. After the plate was stirred with a micromixer (Taiyo Kagaku Kogyo), the medium was exchanged 3 times with serum-free Medium 199, and then test compounds were added thereto. The cells were cultured for additional 4 days to induce apoptosis. Then, fetal calf serum was added thereto at a concentration of 10%, and the cells were further cultured for about 17 hours in a CO2 incubator set at 5% CO2 and 37° C. Finally, the number of viable cells was determined with Cell Counting Kit (Dojindo) using WST-8 (2-(2-methoxy-4-nitrophenyl)-3-(4-nitrophenyl)-5-(2,4-disulfophenyl)-2H-tetrazolium, monosodium salt) as the coloring substrate to determine the inhibition of the heart muscle cell apoptosis.
The above-mentioned experiment was triplicated in an independent manner.
The Mean minimal effective concentration (±SD) was shown for each test compound (Compounds 1 to 5 obtained in Reference Examples) in Table 1. In Table 1, the minimal effective concentration is defined as the concentration required to increase the mean viable cell number by 50% as compared with that in the absence of test compounds.

SMILES | minimal effective concentration [1] [µM] | melting point
O=c1nc(-c2ccccn2)sc2cc(C(F)(F)F)ccc12 [Example 85, 2-(2-Pyridyl)-7-trifluoromethyl-4H-1,3-benzothiazine-4-one] | 0.04 | 175.8 to 177 °C
O=C(O)CCOCCCc1ccc(-c2nc(=O)c3ccccc3s2)nc1 [Example 99, 3-{3-[6-(4-Oxo-4H-1,3-benzothiazin-2-yl)-3-pyridyl]propoxy}propionic acid] | 0.043 | 145.2 to 146.6 °C
CN(C)/C=N/S(=O)(=O)CC(C)(C)COc1cccc(-c2nc(=O)c3ccccc3s2)n1 [Example 100, N,N-(Dimethylaminomethylene)-2,2-dimethyl-3-{[6-(4-oxo-4H-1,3-benzothiazin-2-yl)-2-pyridyl]oxy}-1-propanesulfonamide] | 0.036 | 174.5 to 175.3 °C
O=C(O)CCOCCCc1ccnc(-c2nc(=O)c3ccccc3s2)c1 [Example 102, 3-[3-[2-(4-Oxo-4H-1,3-benzothiazin-2-yl)-4-pyridyl]propoxy]propanoic acid] | 0.036 | 153.8 to 153.9 °C
CCCCN(C)C(=O)c1cccc(-c2nc(=O)c3ccccc3s2)n1 [Example 103, N-Butyl-N-methyl-6-(4-oxo-4H-1,3-benzothiazin-2-yl)-2-pyridinecarboxamide] | 0.042 | 80 to 81.6 °C
O=C(c1cccc(-c2nc(=O)c3ccccc3s2)n1)N1CCCC1 [Example 104] | 0.019 | 232 to 234 °C
CCN(CC)C(=O)c1cccc(-c2nc(=O)c3ccccc3s2)n1 [Example 105, N,N-Diethyl-6-(4-oxo-4H-1,3-benzothiazin-2-yl)-2-pyridinecarboxamide] | 0.028 | 194 to 194.3 °C
CC(C)(C)OC(=O)NCCCCCCNC(=O)c1cccc(-c2nc(=O)c3ccccc3s2)n1 [Example 106, tert-Butyl [[[6-(4-oxo-4H-1,3-benzothiazin-2-yl)-2-pyridyl]carbonyl]amino]hexylcarbamate] | 0.052 | 145.1 to 145.4 °C
CN(C(=O)c1cccs1)c1cccc(-c2nc(=O)c3ccccc3s2)n1 [Example 111, N-Methyl-N-[6-(4-oxo-4H-1,3-benzothiazin-2-yl)-2-pyridyl]-2-thiophenecarboxamide] | 0.037 | 191.5 to 192.9 °C
CN(C(=O)c1ccco1)c1cccc(-c2nc(=O)c3ccccc3s2)n1 [Example 112, N-Methyl-N-[6-(4-oxo-4H-1,3-benzothiazin-2-yl)-2-pyridyl]-2-furamide] | 0.051 | 186.2 to 187.2 °C
CN(C(=O)c1ccccc1)c1cccc(-c2nc(=O)c3ccccc3s2)n1 [Example 113, N-Methyl-N-[6-(4-oxo-4H-1,3-benzothiazin-2-yl)-2-pyridyl]benzamide] | 0.022 | 234 to 235.4 °C
CN(C(=O)C1CCCCC1)c1cccc(-c2nc(=O)c3ccccc3s2)n1 [Example 115, N-methyl-N-[6-(4-oxo-4H-1,3-benzothiazin-2-yl)-2-pyridyl]cyclohexanecarboxamide] | 0.052 | 184.4 to 185.8 °C
CCSc1cccc(-c2nc(=O)c3ccccc3s2)n1 [Example 126, 2-[6-(Ethylthio)-2-pyridyl]-4H-1,3-benzothiazine-4-one] | 0.032 | 161.3 to 162 °C
CC(C)Sc1cccc(-c2nc(=O)c3ccccc3s2)n1 [Example 127, 2-[6-(Isopropylthio)-2-pyridyl]-4H-1,3-benzothiazine-4-one] | 0.04 | 185.4 to 185.8 °C
CC(C)(C)Sc1cccc(-c2nc(=O)c3ccccc3s2)n1 [Example 128, 2-[6-(tert-Butylthio)-2-pyridyl]-4H-1,3-benzothiazine-4-one] | 0.081 | 152.9 to 153.8 °C
CN(C)CCSc1cccc(-c2nc(=O)c3ccccc3s2)n1 [Example 133, 2-{[6-[2-(N,N-Dimethylamino)ethyl]thio]-2-pyridyl}-4H-1,3-benzothiazine-4-one] | 0.06 | 154.8 °C (dec.)
CCOc1cccc(-c2nc(=O)c3ccccc3s2)n1 [Example 134, 2-(6-Ethoxy-2-pyridyl)-4H-1,3-benzothiazine-4-one] | 0.095 | 179.5 to 180 °C
